According to patent US20250353873A1, “COMPOUNDS AND METHODS FOR MODULATING APOE EXPRESSION” (Ionis Pharmaceuticals, Inc., priority 2024, published 2025):
Strand notation (5' to 3'): a small letter for the sugar, then the base; units joined by * are phosphorothioate-linked, units joined directly phosphodiester-linked; [ ] holds rarer units or linkages, { } end groups; capitals alone tell only the bases. [ms] = mesyl phosphoramidate linkage; k = constrained ethyl (cEt); [5mC] = 5-methylcytosine; d = 2'-deoxy (DNA)

Key:
human APOE RNA [1] = experiment: Dose-dependent inhibition of human APOE RNA in HepG2 cells, electroporation, 50,000 cells per well, RT-PCR normalized to GAPDH (Example 4, Tables 8-10); format: cell-based; settings: HepG2, electroporation, 24-hour treatment
How it was run: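 HepG2 cells, 50,000 per well, electroporated with modified oligonucleotide at various concentrations. APOE RNA quantified by RT-PCR with human primer probe set RTS3073, normalized to GAPDH. Values are percent APOE RNA relative to untreated control cells.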

human APOE RNA [2] = experiment: Duration of action study in APOE C57BL/6NTac-Apoeem7250 knock-in mice (Example 16); format: in vivo; settings: 300 μg ICV
How it was run: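 Knock-in mice (2-4 per group) received a single ICV bolus of 300 μg oligonucleotide or PBS. At various timepoints, cortex and spinal cord human APOE RNA was measured by RT-qPCR (RTS3073), normalized to mouse Ppia and expressed as % of PBS control.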

With “1746809 (k[5mC]*dT[ms]kT*dG[ms]kG*dT[ms]dG[ms]dA[ms]dA[ms]dT*d[5mC]*dT*dT*dT*dA[ms]dT*dT[ms]kA*kA*kA; antisense) [Compound 1746809]” the “APOE RNA (% UTC)” value (human APOE RNA [1]; 5 nM) was 91 % UTC, the “APOE RNA (% UTC)” value (human APOE RNA [1]; 33 nM) was 98 % UTC and the “APOE RNA (% UTC)” value (human APOE RNA [1]; 82 nM) was 74 % UTC. The “APOE RNA (% UTC)” value (human APOE RNA [1]; 205 nM) was 81 % UTC, the “APOE RNA (% UTC)” value (human APOE RNA [1]; 512 nM) was 54 % UTC and the “APOE RNA (% UTC)” value (human APOE RNA [1]; 1,280 nM) was 35 % UTC. The “APOE RNA (% UTC)” value (human APOE RNA [1]; 3,200 nM) was 33 % UTC, the “APOE RNA (% UTC)” value (human APOE RNA [1]; 8,000 nM) was 23 % UTC and the “APOE RNA (% UTC)” value (human APOE RNA [1]; 20,000 nM) was 14 % UTC. For the same substance, the IC50 (human APOE RNA [1]) was 840 nM, the “APOE RNA (% control) Cortex” value (human APOE RNA [2]; 112 days post-dose) was 55 % control and the “APOE RNA (% control) Cortex” value (human APOE RNA [2]; 140 days post-dose) was 66 % control. The “APOE RNA (% control) Spinal Cord” value (human APOE RNA [2]; 112 days post-dose) was 86 % control and the “APOE RNA (% control) Spinal Cord” value (human APOE RNA [2]; 140 days post-dose) was 107 % control.
